Reference: publication PMC8620715, “Biological Activity of Triazolopyrimidine Copper(II) Complexes Modulated by an Auxiliary N-N-Chelating Heterocycle Ligands” (Molecules, 2021)

Legend:
λ-DNA = experiment: UV-visible absorption titration with λ-DNA; type: binding, bacteriophage lambda; conditions: 5 µM complex, increasing DNA
Method: To determine if the compounds can interact with DNA, the 48,500 base-pairs genomic DNA from bacteriophage lambda (λ-DNA, Promega, MA, USA) was used. A stock solution of 10 µM λ-DNA (base-pair concentration) was prepared in 10 mMTris/HCl buffer containing 1 mM NaCl, pH 8.
To determine the DNA intercalating ability of complexes (1) and (2), we used the 48,500 base-pairs genomic DNA from the bacteriophage lambda (λ-DNA, Promega, Madison, USA). A 10 µM λ-DNA (base-pair concentration) stock solution was prepared in 10 mM Tris/HCl buffer, pH 8, containing 1 mM NaCl. The UV-visible absorption titration experiments were done using a constant complex concentration (5 µM). […] After DNA addition, the solutions were left to equilibrate for 5 min at room temperature before recording the spectra with a Jasco V-630 spectrophotometer. Stock solutions of compounds (1) and (2) were prepared in DMSO (1 mM) and diluted to 5 µM in 10 mM Tris/HCl containing 1 mM NaCl, pH 8.
The UV-Vis absorption titration experiments were done, keeping the complex concentration constant ([…]) and increasing the concentration of λ-DNA in Tris-HCl/NaCl buffer solution at room temperature until a saturation state was achieved. After DNA addition, the solutions were allowed to equilibrate for 5 min at room temperature. The UV-Vis absorption spectra were recorded with a Jasco V-630 spectrophotometer, using a 10 mm quartz cell. […]

MRSA 388 [1] = experiment: Biofilm formation on polystyrene (crystal violet), MBEC; type: cell-based, Staphylococcus aureus; conditions: MRSA 388, biofilm
Method: (§1) The antibacterial assays were carried out using two Gram-negative (Escherichia coli ATCC 25922, Pseudomonas aeruginosa ATCC 27853) and two Gram-positive (Staphylococcus aureus ATCC 25923, MRSA (meticillin-Resistant S. aureus) 388 (ATCC, American Type Culture Collection) bacteria.
(§2) The method for assessment of biofilm formation on polystyrene microtiter plates was based on previously published protocols. The absorbance at 490 nm was measured with an Apollo LB 911ELISA (Berthold Technologies GmbH & Co. KG, Waltham, MA, USA) reader. The minimal biofilm-eradication concentration (MBEC) was defined as the lowest concentration of antibiotics required to eradicate the biofilm. All experiments were performed in triplicate.

S. aureus 25923 [2] = experiment: as above; type: cell-based, Staphylococcus aureus; conditions: S. aureus 25923, biofilm
Method: as §1, §2

P. aeruginosa 27853 [3] = experiment: MIC by broth microdilution; type: cell-based, Pseudomonas aeruginosa; conditions: P. aeruginosa 27853, planktonic
Method: as §1
(§3) The antimicrobial activity of the two complexes (1) and (2) was assessed using their minimum inhibitory concentration (MIC) by the broth microdilution method, as previously described by the Clinical and Laboratory Standard Institute (CLSI; M07-A9 document). A broth microdilution assay was performed in sterile 96-well plates using Muller-Hinton broth (Scharlau; MHB). The compounds solubilized in […] (1,000 μg/mL) were serially diluted in 90 μL MHB, in concentrations ranging between 500 and 0.97 μg/mL. Overnight cultures were used to prepare suspension in phosphate-buffered saline (pH 7.0) to match a 0.5 McFarland density. The bacterial suspensions were further diluted to 1:100 by adding 0.1 mL of bacterial suspension to 9.9 mL of MHB. A volume of 10 μL of this dilution was added to each well of columns 1–10, containing different concentrations of the tested compounds. […] Additionally, 10 μL of the diluted bacterial suspension was added in column 11 (the growth control). A volume of 100 μL MHB was added to the microtiter plates’ sterility control wells (column 12). After inoculation, the plates were incubated at 35 ± 2 °C for 18 h. Growth was measured as light absorbance (620 nm) in comparison to an uninoculated well (negative control). It was detected using a microtiter plate reader (Apollo LB 911ELISA (Berthold Technologies GmbH & Co. KG, Waltham, MA, USA)). The MIC of each compound was defined as the lowest concentration required to inhibit bacterial growth.

B16 cells = experiment: Lactate dehydrogenase (LDH) release assay, B16 cells; type: cell-based, mouse
Method: Membrane integrity after peptide treatment was assessed based on LDH release using a CytoTox 96 Non-Radioactive Cytotoxicity Assay (Promega), as previously described. […] Maximal LDH release was obtained by complete cell lysis induced by using 1% of Triton X-100. The absorption resulting from LDH activity was measured in a microplate reader Mithras 940 (Berthold) at 490 nm, and the % LDH was calculated as: [(corrected absorbance of the LDH released in treated cells)/(corrected absorbance of the total LDH released)] * 100%.

E. coli 25922 = experiment: MIC by broth microdilution; type: cell-based, Escherichia coli; conditions: E. coli 25922, planktonic
Method: as §1, §3

P. aeruginosa 27853 [4] = experiment: Biofilm formation on polystyrene (crystal violet), MBEC; type: cell-based, Pseudomonas aeruginosa; conditions: P. aeruginosa 27853, biofilm
Method: as §1, §2

MRSA 388 [5] = experiment: MIC by broth microdilution; type: cell-based, Staphylococcus aureus; conditions: MRSA 388, planktonic
Method: as §1, §3

S. aureus 25923 [6] = experiment: MIC by broth microdilution; type: cell-based, Staphylococcus aureus; conditions: S. aureus 25923, planktonic
Method: as §1, §3

Compound | change of absorption spectrum on binding to λ-DNA (λ-DNA) | MBEC (MRSA 388 [1]) [mM] | MBEC (S. aureus 25923 [2]) [mM] | MIC (P. aeruginosa 27853 [3]) [µM] | LDH release (B16 cells; B16, 24 h) [%] | LDH release (B16 cells; B16, 48 h) [%] | MIC (E. coli 25922) [µM] | MBEC (P. aeruginosa 27853 [4]) [mM] | MIC (MRSA 388 [5]) [µM] | MIC (S. aureus 25923 [6]) [µM] | membrane integrity (LDH release) (B16 cells; B16, 24 h and 48 h)
Cc1cc(C)n2ncnc2n1.Cc1cc(C)n2ncnc2n1.Cc1cc(C)n2ncnc2n1.O.[Cu+2].[O-][Cl+3]([O-])([O-])[O-].[O-][Cl+3]([O-])([O-])[O-].c1cnc2c(c1)ccc1cccnc12 [Complex (2), [Cu(phen)(dmtp)2(OH2)](ClO4)2·dmtp] | decrease in the absorption intensity | 0.04 | 0.04 | 690 | 60 | 100 | 340 | 0.69 | 20 | 40 | 
Cc1cc(C)n2ncnc2n1.Cc1cc(C)n2ncnc2n1.Cc1cc(C)n2ncnc2n1.O.[Cu+2].[O-][Cl+3]([O-])([O-])[O-].[O-][Cl+3]([O-])([O-])[O-].c1ccc(-c2ccccn2)nc1 [Complex (1), [Cu(bpy)(dmtp)2(OH2)](ClO4)2·dmtp] | decrease in the absorption intensity | 0.35 | 0.18 | 710 |  |  | 710 | 0.71 | 350 | 180 | did not affect the membrane integrity
